Data on 36 molecules can be found in patent US20240251795A1, “METHOD FOR C[…] RESISTANT PESTS & COMPOUNDS THEREFOR” (priority 2021, published 2024).

Values after ≈ are worked out from the molar mass of the structure shown. Some results are limits rather than exact numbers.

In one data set the test system is multi-resistant Plutella xylostella larvae having the G4946E resistance mutation (strain R1). Kind of data set: Resistant Plutella xylostella R1 (Diamond Back Moth) Larvicide L3, Feeding/Contact. Format: in vivo. The note with it: Plutella xylostella, in Brassica rapa, 96 h, read-out: Rate providing at least 80% control of the resistant strain of Plutella xylostella R1. As to the method:
Resistant Plutella xylostella R1 (Diamond Back Moth) Larvicide L3, Feeding/Contact
Chinese cabbage plants were sprayed with diluted test solutions in an application chamber. Cut off leaves were placed into petri dishes with wetted filter paper and infested 1 day after application with 10 L3 multi-resistant Plutella xylostella larvae having the G4946E resistance mutation. Samples were assessed 4 days after infestation for mortality and growth regulation. CTPR was used as standard and a resistance factor of 146 was obtained for this strain.
Plutella xylostella resistant strain R1 originally collected from Taiwan in 2012 that carries the RyR mutation G4946E conferring resistance to diamides. The strain is reared on cabbage plants (Brassica aleracea) and selected approximately every two weeks with chlorantraniliprole.
Regarding `CC(C)NC(=O)c1cc2nn(C)cc2c(Cl)c1NC(=O)c1cc(C(F)(F)F)nn1-c1ncccc1Cl`, the EC80 was over 50 µg/mL. As to `CNC(=O)c1cc2cc(Cl)ccc2c(Cl)c1NC(=O)c1cc(Br)nn1-c1ncccc1Cl`, the EC80 was 200 µg/mL (≈ 361 µM).

As for `NC(=O)c1cc2cc(Br)ccc2c(Cl)c1NC(=O)c1cc(Br)nn1-c1ncccc1Cl` [P.27, 5-bromo-N-(6-bromo-3-carbamoyl-1-chloro-2-naphthyl)-2-(3-chloro-2-pyridyl)pyrazole-3-carboxamide], the EC80 was determined as 50 µg/mL (≈ 85.6 µM). As for `CNC(=O)c1cc2nc(C(F)(F)F)ccc2c(C)c1NC(=O)c1cc(C(F)F)nn1-c1ncccc1Cl`, the EC80 came to 200 µg/mL (≈ 371 µM). For the molecule `NC(=O)c1cc2cc(Br)ccc2c(Br)c1NC(=O)c1cc(OCC(F)(F)F)nn1-c1ncccc1Cl` [P.1, 2-(3-chloro-2-pyridyl)-N-(1,6-dibromo-3-carbamoyl-2-naphthyl)-5-(2,2,2-trifluoroethoxy)pyrazole-3-carboxamide], the EC80 came out at 3 µg/mL (≈ 4.63 µM). Take `CNC(=O)c1cc2cc(Br)ccc2c(Br)c1NC(=O)c1cc(C(F)(F)F)nn1-c1ncccc1Cl`: the EC80 was determined as 50 µg/mL (≈ 79.2 µM). As for `NC(=O)c1cc2cc(Br)ccc2c(Br)c1NC(=O)c1cc(C(F)(F)F)nn1-c1ncccc1Cl` [P.4, 2-(3-chloro-2-pyridyl)-N-(1,6-dibromo-3-carbamoyl-2-naphthyl)-5-(trifluoromethyl)pyrazole-3-carboxamide], the EC80 stood at 12.5 µg/mL (≈ 20.2 µM). Take `O=C(NC1CC1)c1cc2cc(Br)ccc2c(Cl)c1NC(=O)c1cc(Br)nn1-c1ncccc1Cl`: the EC80 was determined as 200 µg/mL (≈ 320 µM). Still for that read-out and setting: for `NC(=O)c1cc2cc(Br)ccc2c(Cl)c1NC(=O)c1cc(Cl)nn1-c1ncccc1Cl` [P.26, N-(6-bromo-3-carbamoyl-1-chloro-2-naphthyl)-5-chloro-2-(3-chloro-2-pyridyl)pyrazole-3-carboxamide] the value was 50 µg/mL (≈ 92.7 µM); for `Cc1c(NC(=O)c2cc(C(F)F)nn2-c2ncccc2Cl)c(C(N)=O)cc2nc(C(F)(F)F)ccc12` [P.7, 6-[[2-(3-chloro-2-pyridyl)-5-(difluoromethyl)pyrazole-3-carbonyl]amino]-5-methyl-2-(trifluoromethyl)quinoline-7-carboxamide], 12.5 µg/mL (≈ 23.8 µM).

For `CNC(=O)c1cc2cc(Br)ccc2c(Cl)c1NC(=O)c1cc(Cl)nn1-c1ncccc1Cl`, the EC80 was over 200 µg/mL. On to `NC(=O)c1cc2cc(Cl)ccc2c(Cl)c1NC(=O)c1cc(Br)nn1-c1ncccc1Cl` [P.25, 5-bromo-N-(3-carbamoyl-1,6-dichloro-2-naphthyl)-2-(3-chloro-2-pyridyl)pyrazole-3-carboxamide], for which the EC80 was 50 µg/mL (≈ 92.7 µM). Regarding `Cn1cc2c(Cl)c(NC(=O)c3cc(C(F)(F)F)nn3-c3ncccc3Cl)c(C(N)=O)cc2n1` [P.36, 4-chloro-5-[[2-(3-chloro-2-pyridyl)-5-(trifluoromethyl)pyrazole-3-carbonyl]amino]-2-methyl-indazole-6-carboxamide], the EC80 is 3 µg/mL (≈ 6.02 µM).

For `CNC(=O)c1cc2cc(Br)ccc2c(Cl)c1NC(=O)c1cc(C(F)(F)F)nn1-c1ncccc1Cl`, the EC80 was over 200 µg/mL. Take `CNC(=O)c1cc2cc(Br)ccc2c(Br)c1NC(=O)c1cc(OCC(F)(F)F)nn1-c1ncccc1Cl`: the EC80 turned out to be 12.5 µg/mL (≈ 18.9 µM).

As to `CC(C)NC(=O)c1cc2cc(Br)ccc2c(Cl)c1NC(=O)c1cc(Br)nn1-c1ncccc1Cl`, the EC80 amounted to 200 µg/mL (≈ 319 µM). Same read-out and setting: for `NC(=O)c1cc2cc(Br)ccc2c(Cl)c1NC(=O)c1cc(C(F)(F)F)nn1-c1ncccc1Cl` [P.28, N-(6-bromo-3-carbamoyl-1-chloro-2-naphthyl)-2-(3-chloro-2-pyridyl)-5-(trifluoromethyl)pyrazole-3-carboxamide] the value was 50 µg/mL (≈ 87.2 µM). Still for that read-out and setting: the same measure for `CNC(=O)c1cc2cc(Br)ccc2c(Br)c1NC(=O)c1cc(Br)nn1-c1ncccc1Cl`: over 200 µg/mL; for `NC(=O)c1cc2cc(Br)ccc2c(Br)c1NC(=O)c1cc(Br)nn1-c1ncccc1Cl` [P.8, 5-bromo-2-(3-chloro-2-pyridyl)-N-(1,6-dibromo-3-carbamoyl-2-naphthyl)pyrazole-3-carboxamide]: 50 µg/mL (≈ 79.6 µM).

The same data set, now with this note: strain R1; CTPR used as standard.
Turning to `CNC(=O)c1cc(Cl)cc(C)c1NC(=O)c1cc(Br)nn1-c1ncccc1Cl` [CTPR, chlorantraniliprole, reference compound], the resistance factor came to 146.

For another data set, the system named is Plutella xylostella resistant strain R4 (RyR mutation G4946E). The data set is described as follows: Resistant Plutella xylostella R4 (Diamond back moth) larvicide L1, feeding/contact. Format: in vivo. The note with it: L1, artificial diet in 24-well plates, around 30 eggs; mortality vs untreated assessed 8 days after infestation. As to the method: Resistant Plutella xylostella R^4 (Diamond back moth) larvicide L1, feeding/contact 24-well microtiter plates with artificial diet were treated with aqueous test solutions prepared from 10′000 ppm DMSO stock solutions by pipetting. After drying, around 30 Plutella eggs were pipetted through a plastic stencil onto a gel blotting paper and the plate was closed with it. The samples were assessed for mortality in comparison to untreated samples 8 days after infestation.
CTPR was used as standard and a resistance factor of 242 was obtained for this strain
Plutella xylostella resistant strain R4 originated in the lab in 2021 from crossing the R1 strain with a lab-reared susceptible P. xylostella strain (SUS). R4 can be reared and tested on artificial diet and also carries the RyR mutation G4946E conferring resistance to diamides. The strain is selected approximately every two weeks with chlorantraniliprole.
For the molecule `CC(C)NC(=O)c1cc2nn(C)cc2c(Cl)c1NC(=O)c1cc(C(F)(F)F)nn1-c1ncccc1Cl`, the “Rate providing at least 80% control of the resistant strain of Plutella xylostella R4” value is recorded as over 50 ppm. The same measure, in the same setting: the same measure for `CNC(=O)c1cc2nc(C)oc2c(C)c1NC(=O)c1cc(Br)nn1-c1ncccc1Cl`: over 50 ppm; for `Cn1cc2c(Cl)c(NC(=O)c3cc(C(F)(F)F)nn3-c3ncccc3Cl)c(C(N)=O)cc2n1` [P.36, 4-chloro-5-[[2-(3-chloro-2-pyridyl)-5-(trifluoromethyl)pyrazole-3-carbonyl]amino]-2-methyl-indazole-6-carboxamide]: 12.5 ppm.

Take `Cc1nc2cc(C(N)=O)c(NC(=O)c3cc(Br)nn3-c3ncccc3Cl)c(C)c2o1` [P.46, 6-[[5-bromo-2-(3-chloro-2-pyridyl)pyrazole-3-carbonyl]amino]-2,7-dimethyl-1,3-benzoxazole-5-carboxamide]: the “Rate providing at least 80% control of the resistant strain of Plutella xylostella R4” value was 12.5 ppm.

Staying with this data set, now noted: strain R4; CTPR used as standard.
For the molecule `CNC(=O)c1cc(Cl)cc(C)c1NC(=O)c1cc(Br)nn1-c1ncccc1Cl` [CTPR, chlorantraniliprole, reference compound], the resistance factor is 242.

System in a further data set: not given
Assay: not given
Conditions: not given
For orientation: melting point means the temperature, or range, at which the solid turns liquid. On to `NC(=O)c1cc2cc(Br)ccc2c(Br)c1NC(=O)c1cc(Cl)nn1-c1ncccc1Cl` [P.31, 5-chloro-2-(3-chloro-2-pyridyl)-N-(1,6-dibromo-3-carbamoyl-2-naphthyl)pyrazole-3-carboxamide], for which the melting point lay in the range of 170 to 172 °C. As to `Cc1c(NC(=O)c2cc(C(F)(F)F)nn2-c2ncccc2Cl)c(C(N)=O)cc2c1OC(F)(F)O2`, the melting point is 223 to 225 °C. With `NC(=O)c1cc2ccccc2c(Cl)c1NC(=O)c1cc(OC(F)F)nn1-c1ncccc1Cl` [P.20, N-(3-carbamoyl-1-chloro-2-naphthyl)-2-(3-chloro-2-pyridyl)-5-(difluoromethoxy)pyrazole-3-carboxamide], the melting point is 143 to 145 °C.

In the case of `COc1cc(C(=O)Nc2c(C(N)=O)cc3ccccc3c2Cl)n(-c2ncccc2Cl)n1` [P.13, N-(3-carbamoyl-1-chloro-2-naphthyl)-2-(3-chloro-2-pyridyl)-5-methoxy-pyrazole-3-carboxamide], the melting point was 154 to 156 °C. Take `Cc1ccc2c(C)c(NC(=O)c3cc(C(F)(F)F)nn3-c3ncccc3Cl)c(C(N)=O)cc2c1` [P.32, N-(3-carbamoyl-1,6-dimethyl-2-naphthyl)-2-(3-chloro-2-pyridyl)-5-(trifluoromethyl)pyrazole-3-carboxamide]: the melting point lay within 216 to 218 °C. `NC(=O)c1nc2ccccc2c(Cl)c1NC(=O)c1cc(Br)nn1-c1ncccc1Cl` [P.18, 3-[[5-bromo-2-(3-chloro-2-pyridyl)pyrazole-3-carbonyl]amino]-4-chloro-quinoline-2-carboxamide] yielded a melting point of 204 to 206 °C. In the case of `NC(=O)c1cc2cc(Br)ccc2c(Cl)c1NC(=O)c1cc(Cn2ncc3c(Cl)cccc32)nn1-c1ncccc1Cl`, the melting point is 149 to 157 °C.

`NC(=O)c1cc2cc(Br)ccc2c(Cl)c1NC(=O)c1cc(Cn2nnc(C(F)(F)F)n2)nn1-c1ncccc1Cl` returned a melting point of 190 to 226 °C. On the same count and under the same terms, for `NC(=O)c1cc2ccccc2c(Cl)c1NC(=O)c1cc(C(F)(F)F)nn1-c1ncccc1Cl` [P.10, N-(3-carbamoyl-1-chloro-2-naphthyl)-2-(3-chloro-2-pyridyl)-5-(trifluoromethyl)pyrazole-3-carboxamide] the value was 155 to 157 °C; for `NC(=O)c1cc2ccccc2c(Cl)c1NC(=O)c1cc(OCC(F)(F)F)nn1-c1ncccc1Cl` [P.11, N-(3-carbamoyl-1-chloro-2-naphthyl)-2-(3-chloro-2-pyridyl)-5-(2,2,2-trifluoroethoxy)pyrazole-3-carboxamide], 158 to 160 °C; for `NC(=O)c1cc2ccccc2c(Cl)c1NC(=O)c1cc(OCC(F)(F)C(F)(F)F)nn1-c1ncccc1Cl`, 264 to 266 °C. For `Cc1nc2cc(C(N)=O)c(NC(=O)c3cc(Br)nn3-c3ncccc3Cl)c(C)c2s1` [P.45, 6-[[5-bromo-2-(3-chloro-2-pyridyl)pyrazole-3-carbonyl]amino]-2,7-dimethyl-1,3-benzothiazole-5-carboxamide], the melting point fell in the range of 175 to 180 °C.

On to `Cc1c(NC(=O)c2cc(OCC(F)(F)F)nn2-c2ncccc2Cl)c(C(N)=O)cc2ncsc12` [P.44, 6-[[2-(3-chloro-2-pyridyl)-5-(2,2,2-trifluoroethoxy)pyrazole-3-carbonyl]amino]-7-methyl-1,3-benzothiazole-5-carboxamide], for which the melting point was in the range of 135 to 140 °C. Molecule `Cc1c(NC(=O)c2cc(Br)nn2-c2ncccc2Cl)c(C(N)=O)cc2nn(C)cc12` came in with a melting point of 242 to 244 °C.
